According to the NIST ThermoML archive (doi:10.1021/je901020a):

Key:
[1] = refractive index (Na D-line) (dimensionless); xn = mol fraction of the nth substance listed; settings: 101 kPa, Liquid, Standard Abbe refractometry
[2] = xn = mol fraction of the nth substance listed; settings: 101 kPa, Liquid; for speed of sound: Pulse-echo method

C1CCCCCCC1 [cyclooctane] + Cc1ccccc1C
Settings | mass density, [2] [kg/m3] | refractive index, [1] | speed of sound, [2] [m/s]
298.15 K, x1 = 0.0513 | 871.8 | 1.49887 | 1347
298.15 K, x1 = 0.1015 | 868.4 | 1.49595 | 1348
298.15 K, x1 = 0.2 | 862.5 | 1.49039 | 1349
298.15 K, x1 = 0.3067 | 856.9 | 1.48468 | 1351
298.15 K, x1 = 0.4026 | 852.2 | 1.47987 | 1354
298.15 K, x1 = 0.5037 | 847.6 | 1.47508 | 1358
298.15 K, x1 = 0.6262 | 842.6 | 1.46963 | 1364
298.15 K, x1 = 0.7007 | 839.9 | 1.46653 | 1368
298.15 K, x1 = 0.8028 | 836.5 | 1.4626 | 1375
298.15 K, x1 = 0.8953 | 833.9 | 1.45933 | 1381
298.15 K, x1 = 0.9498 | 832.5 | 1.45752 | 1386
298.15 K, x1 = 1 | 831.5 | 1.45598 | 1391
313.15 K, x1 = 0.0508 | 859.7 | 1.49181 | 1289
313.15 K, x1 = 0.0905 | 857.3 | 1.48933 | 1289
313.15 K, x1 = 0.1697 | 852.7 | 1.48503 | 1289
313.15 K, x1 = 0.2967 | 845.9 | 1.47816 | 1291
313.15 K, x1 = 0.3824 | 841.6 | 1.47392 | 1293
313.15 K, x1 = 0.4839 | 836.9 | 1.46911 | 1296
313.15 K, x1 = 0.5878 | 832.4 | 1.46435 | 1300
313.15 K, x1 = 0.6869 | 828.6 | 1.46018 | 1305
313.15 K, x1 = 0.7892 | 825.1 | 1.45617 | 1310
313.15 K, x1 = 0.8891 | 822 | 1.45244 | 1317
313.15 K, x1 = 0.9368 | 820.7 | 1.45072 | 1321
313.15 K, x1 = 1 | 819.2 | 1.44877 | 1326

C1CCCCCCC1 [cyclooctane] + Cc1ccc(C)cc1
Settings | mass density, [2] [kg/m3] | refractive index, [1] | speed of sound, [2] [m/s]
298.15 K, x1 = 0.0534 | 854.3 | 1.49055 | 1312
298.15 K, x1 = 0.1004 | 852.6 | 1.4883 | 1314
298.15 K, x1 = 0.2025 | 848.8 | 1.48358 | 1319
298.15 K, x1 = 0.303 | 845.4 | 1.4792 | 1325
298.15 K, x1 = 0.402 | 842.4 | 1.47506 | 1332
298.15 K, x1 = 0.4986 | 839.6 | 1.47129 | 1339
298.15 K, x1 = 0.599 | 837.1 | 1.46764 | 1348
298.15 K, x1 = 0.6981 | 835 | 1.46424 | 1357
298.15 K, x1 = 0.7968 | 833.3 | 1.46119 | 1367
298.15 K, x1 = 0.8926 | 832 | 1.4585 | 1377
298.15 K, x1 = 0.9504 | 831.5 | 1.45707 | 1384
298.15 K, x1 = 1 | 831.5 | 1.45598 | 1391
313.15 K, x1 = 0.0485 | 841.6 | 1.48247 | 1250
313.15 K, x1 = 0.0874 | 840.2 | 1.48077 | 1252
313.15 K, x1 = 0.1848 | 836.7 | 1.47651 | 1256
313.15 K, x1 = 0.2948 | 833.2 | 1.472 | 1262
313.15 K, x1 = 0.3853 | 830.4 | 1.46825 | 1268
313.15 K, x1 = 0.4829 | 827.7 | 1.46454 | 1274
313.15 K, x1 = 0.5809 | 825.3 | 1.46094 | 1282
313.15 K, x1 = 0.6837 | 823.1 | 1.45755 | 1291
313.15 K, x1 = 0.7877 | 821.3 | 1.45432 | 1301
313.15 K, x1 = 0.8888 | 820 | 1.45148 | 1312
313.15 K, x1 = 0.9413 | 819.5 | 1.4501 | 1318
313.15 K, x1 = 1 | 819.2 | 1.44877 | 1325

C1CCCCC1 [cyclohexane] + Cc1ccccc1C
x1 = 1
Settings | mass density, [2] [kg/m3] | refractive index, [1] | speed of sound, [2] [m/s]
298.15 K | 773.9 | 1.4236 | 1255
313.15 K | 759.6 | 1.41516 | 1182

Cc1cc(C)cc(C)c1 [1,3,5-trimethylbenzene] + C1CCCC1
x2 = 0
Settings | mass density, [2] [kg/m3] | refractive index, [1] | speed of sound, [2] [m/s]
298.15 K | 861.1 | 1.49693 | 1336
313.15 K | 848.8 | 1.48923 | 1277

Cc1cccc(C)c1 [1,3-dimethylbenzene] + C1CCCCCCC1
x2 = 0
Settings | mass density, [2] [kg/m3] | refractive index, [1] | speed of sound, [2] [m/s]
298.15 K | 859.8 | 1.49466 | 1321
313.15 K | 846.9 | 1.48653 | 1259

CC1CCCCC1 [methylcyclohexane] + Cc1cccc(C)c1
x1 = 1
Settings | mass density, [2] [kg/m3] | refractive index, [1] | speed of sound, [2] [m/s]
298.15 K | 765 | 1.42062 | 1215
313.15 K | 751.9 | 1.41274 | 1150

C1CCCCCCC1 [cyclooctane] + Cc1cc(C)cc(C)c1
Settings | mass density, [2] [kg/m3] | refractive index, [1] | speed of sound, [2] [m/s]
298.15 K, x1 = 0.0496 | 858.9 | 1.49453 | 1338
298.15 K, x1 = 0.1026 | 856.8 | 1.49198 | 1339
298.15 K, x1 = 0.2035 | 852.7 | 1.48725 | 1341
298.15 K, x1 = 0.307 | 848.8 | 1.48253 | 1345
298.15 K, x1 = 0.4062 | 845.2 | 1.47807 | 1349
298.15 K, x1 = 0.5042 | 841.9 | 1.47384 | 1354
298.15 K, x1 = 0.598 | 839 | 1.46995 | 1359
298.15 K, x1 = 0.696 | 836.2 | 1.46606 | 1366
298.15 K, x1 = 0.8308 | 833.3 | 1.46115 | 1376
298.15 K, x1 = 0.8926 | 832.3 | 1.45905 | 1381
298.15 K, x1 = 0.9484 | 831.7 | 1.45738 | 1386
298.15 K, x1 = 1 | 831.5 | 1.45598 | 1391
313.15 K, x1 = 0.0517 | 846.6 | 1.48694 | 1277
313.15 K, x1 = 0.0872 | 845.2 | 1.48532 | 1278
313.15 K, x1 = 0.1842 | 841.3 | 1.48082 | 1280
313.15 K, x1 = 0.2935 | 837.2 | 1.4759 | 1283
313.15 K, x1 = 0.3891 | 833.8 | 1.47166 | 1287
313.15 K, x1 = 0.4882 | 830.4 | 1.46743 | 1291
313.15 K, x1 = 0.5857 | 827.5 | 1.4634 | 1296
313.15 K, x1 = 0.6847 | 824.6 | 1.45952 | 1302
313.15 K, x1 = 0.791 | 822.1 | 1.45559 | 1309
313.15 K, x1 = 0.8911 | 820.3 | 1.45214 | 1317
313.15 K, x1 = 0.939 | 819.7 | 1.45053 | 1321
313.15 K, x1 = 1 | 819.2 | 1.44877 | 1325

Cc1ccc(C)cc1 [1,4-dimethylbenzene] + CC1CCCCC1
x2 = 0
Settings | mass density, [2] [kg/m3] | refractive index, [1] | speed of sound, [2] [m/s]
298.15 K | 856.6 | 1.49312 | 1310
313.15 K | 843.5 | 1.48444 | 1248

C1CCCC1 [cyclopentane] + Cc1cccc(C)c1
Settings | mass density, [2] [kg/m3] | refractive index, [1] | speed of sound, [2] [m/s]
298.15 K, x1 = 0.0391 | 856.1 | 1.49183 | 1315
298.15 K, x1 = 0.0908 | 851.1 | 1.48818 | 1308
298.15 K, x1 = 0.1894 | 841.2 | 1.48065 | 1296
298.15 K, x1 = 0.2859 | 831.2 | 1.47341 | 1284
298.15 K, x1 = 0.3868 | 820.1 | 1.46504 | 1272
298.15 K, x1 = 0.4808 | 809.2 | 1.45745 | 1260
298.15 K, x1 = 0.6394 | 789.8 | 1.44242 | 1241
298.15 K, x1 = 0.6923 | 782.9 | 1.43668 | 1235
298.15 K, x1 = 0.7909 | 769.7 | 1.42686 | 1224
298.15 K, x1 = 0.8952 | 755 | 1.41504 | 1214
298.15 K, x1 = 0.9514 | 746.9 | 1.40888 | 1208
298.15 K, x1 = 1 | 740 | 1.40292 | 1204
313.15 K, x1 = 0.0431 | 842.9 | 1.48387 | 1253
313.15 K, x1 = 0.0812 | 839.2 | 1.48096 | 1248
313.15 K, x1 = 0.1859 | 828.6 | 1.47303 | 1234
313.15 K, x1 = 0.2864 | 818 | 1.46521 | 1220
313.15 K, x1 = 0.3348 | 812.6 | 1.46128 | 1213
313.15 K, x1 = 0.4741 | 796.4 | 1.44893 | 1194
313.15 K, x1 = 0.5747 | 784.1 | 1.43989 | 1181
313.15 K, x1 = 0.6933 | 768.8 | 1.42834 | 1166
313.15 K, x1 = 0.7932 | 755.2 | 1.4181 | 1153
313.15 K, x1 = 0.8961 | 740.5 | 1.4067 | 1141
313.15 K, x1 = 0.9472 | 733 | 1.40122 | 1135
313.15 K, x1 = 1 | 725 | 1.39456 | 1130
